Entries after “also recorded” stand apart in the source; their conditions may differ. Read-outs that look alike come from different tables or passages of the source.
How the values were obtained:
[1] = tested on: NCI-H838 cells (SMARCA4-del NSCLC cell line); assay: Cell cycle analysis by flow cytometry (EdU / DRAQ5); format: cell-based, human; conditions: NCI-H838, single agent, 48 hrs
Protocol: Cells were seeded, incubated overnight, and dosed with drug treatments the next day. 2 hours before collection, cells were incubated with 10 μM EdU at 37 C then harvested using trypsin EDTA and washed with PBS/1% BSA. 4% PFA was added to the cells followed by a 15 minute incubation at RT. Cell were washed again with PBS/1% BSA and resuspended in 1X Click-iT® saponin-based permeabilization reagent for 15-minutes. Following centrifugation, supernatant was removed, and cells were incubated for 30 mins at RT, protected from light, in Click-iT® reaction cocktail, which was prepared according to manufacturer's instructions. Cells were then washed once with 0.01% Triton in PBS and resuspended in PBS. DRAQ5™ was added to cells at 1:200 dilution, incubated at room temperature, preventing exposure to light, for 30-60 min. Lastly, cells were washed with PBS/1% BSA and resuspended in 400 μl PBS/1% BSA. EdU with Pacific Blue™ azide and was detected using 405 nm excitation with a violet emission filter (450/50 nm) on a flow cytometer and analyzed using FlowJo software.
The combination effects of Formula (I) and docetaxel on the cell cycle was analyzed in a SMARCA4-deficient NSCLC lung cancer cell line by flow cytometry using DraQ5 and Click-iT EdU Pacific Blue. […]

[2] = tested on: SMARCA4-deficient NCI-H838 Lung Cancer Xenograft; conditions: for Tumor size: day 20, mean ± SEM; for Tumor size / TGI (tumor growth inhibition vs vehicle): combination of both regimens; for TGI (tumor growth inhibition vs vehicle): day 20
Protocol: (§1) As used herein, tumor growth inhibition is calculated as follows: Mean % Inhibition=(mean(C)−mean(T))/mean(C)*100%, wherein C is the tumor volume in the control arm, and T is the tumor volume in the treatment arm.
(§2) The NCI-H838-#5 tumor cells were maintained in vitro with RPMI1640 medium supplemented with 10% fetal bovine serum at 37° C. in an atmosphere of 5% CO2 in air. The cells in exponential growth phase were harvested and quantitated by cell counter before tumor inoculation. NOD-SCID female mice were inoculated subcutaneously in the right front flank region with NCI-H838-#5 tumor cells (5×10^6) in 0.1 ml of PBS mixed with Matrigel (1:1) for tumor development. The randomization was performed when the mean tumor size reaches approximately 100-150 mm^3.
(§3) Tumor volumes at the end of studies were evaluated by the Mann-Whitney test (unpaired, nonparametric test). * P<0.05 […], *** P<0.001 versus vehicle are shown in graphs.

[3] = tested on: SMARCA4-deficient A549 Lung Cancer Xenograft; conditions: for Tumor size: day 28, mean ± SEM
Protocol: as §1
as §2, with “A549” for “NCI-H838-#5”, “Ham's F12K” for “RPMI1640”, “BALB/c nude” for “NOD-SCID”, “PBS” for “PBS mixed with Matrigel (1:1)”
as §3

[4] = tested on: SMARCA4-WT Calu-6 Lung Cancer Xenograft; conditions: for Tumor size: day 21, mean ± SEM; for Tumor size / TGI (tumor growth inhibition vs vehicle): Formula (I) 100 mg/kg Q3D, docetaxel 5/10 mg/kg QW, combination 100 + 5/10 mg/kg Q3D + QW; for TGI (tumor growth inhibition vs vehicle): day 21
Protocol: as §1
as §2, with “Calu-6” for “NCI-H838-#5”, “MEM” for “RPMI1640”, “BALB/c nude” for “NOD-SCID”, “PBS” for “PBS mixed with Matrigel (1:1)”
as §3

SMARCA2 protein = target: T1, SMARCA2 protein (Homo sapiens, UniProt P51531); assay: Semi-quantitative western blot of SMARCA2 in tumor tissue; format: in vivo, mouse xenograft; conditions: for tumor SMARCA2 protein levels: repeat administration, Formula (I) 100-200 mg/kg s.c. Q3D, over a 24 h period, docetaxel 5-20 mg/kg i.v. QW; for tumor SMARCA2 protein levels relative to vehicle treated mice: tumors collected 4 hr and 24 hr post final dosing, Formula (I) 100 mg/kg s.c. Q3D, docetaxel 10/5 mg/kg i.v. QW
T1 construct: from tissue; host or cells: Frozen xenograft tumor tissue from human lung cancer cells (NCI-H838, A549 or Calu-6) grown subcutaneously in mice
Protocol: SMARCA2 protein expression was measured by semi-quantitative western blot following extraction of protein from frozen tumor tissue. Up to 50 mg of frozen tumor tissue was measured and placed into 0.5 mL conical tubes containing 0.5 mm ceramic beads and 400 μL RIPA buffer containing 1× protease and phosphatase inhibitors (ThermoFisher Scientific, A32959) and PMSF (Cell Signaling Technology, #8553). Tissues were homogenized with a Bead Ruptor Elite at a speed of 5 m/sec for 25 seconds and centrifuged at 12,000 rpm for 3 min at 4° C. Milling and centrifugation steps were performed two additional times before transferring supernatant to UltraFree 0.45 μm 0.5 mL filter columns (Millipore Sigma, #UFC30HV) and centrifuging at 12,000 rpm for 1 min. Flow through lysate was quantified by BCA assay, diluted with 1 volume of RIPA lysis buffer, and mixed with Laemmli sample buffer. Lysates were boiled at 95° C. for 5 min and 30 μg of protein was loaded in 4-20% Criterion TGX Precast Midi Protein Gels (BioRad, #5671095). Protein was transferred to PVDF membranes by Trans-Blot Turbo system (Bio-Rad) and probed with Actin (Signma, #A2228) and SMARCA2 (Cell Signaling Technology, #11966) primary antibodies at a 1:1000 dilution and IRDye 800CW or IRDye 680RD secondary antibodies (LICOR, antibody, #926-68070) in iBind automated western system (ThermoFisher Scientific). The stained blots were scanned by LiCOR Odyssey CLx imaging system to acquire integrated intensities at 700 nm and 800 nm channel and analyzed using Image Studio software v5.2.

[5] = tested on: SMARCA4-mutated NCI-H838 tumor tissues; assay: RNA-sequencing and Gene Set Enrichment Analysis of treated tumor tissues; format: in vivo; conditions: NCI-H838 tumor tissues treated for one week
Protocol: To elucidate the mechanism of action for the combination effects observed in vivo, RNA-sequencing was conducted on SMARCA4-mutated NCI-H838 tumor tissues treated with Formula (I) and/or docetaxel for one week.

[6] = tested on: SMARCA4-mutated cancer cell lines; assay: Cell cycle arrest in SMARCA4-mutated cancer cell lines; format: cell-based
[7] = tested on: SMARCA4 wild-type cell lines; assay: Cell cycle arrest in SMARCA4 wild-type cell lines; format: cell-based
[8] = Formula (I) 100 mg/kg s.c. Q3D, docetaxel 10/5 mg/kg i.v. QW
[9] = as printed in text: Formula (I) 200 mg/kg s.c. Q3D, docetaxel 5-20 mg/kg i.v. QW, combination Formula (I) 100 mg/kg s.c. Q3D + docetaxel 5-20 mg/kg i.v. QW
[10] = Formula (I) 100 mg/kg s.c. Q3D, docetaxel 5/10/20 mg/kg QW, combination 200 + 5/10/20 mg/kg Q3D + QW
[11] = day 28, Formula (I) 100 mg/kg s.c. Q3D, docetaxel 5/10/20 mg/kg QW, combination 200 + 5/10/20 mg/kg Q3D + QW

T1 sequence (P51531 whole entry): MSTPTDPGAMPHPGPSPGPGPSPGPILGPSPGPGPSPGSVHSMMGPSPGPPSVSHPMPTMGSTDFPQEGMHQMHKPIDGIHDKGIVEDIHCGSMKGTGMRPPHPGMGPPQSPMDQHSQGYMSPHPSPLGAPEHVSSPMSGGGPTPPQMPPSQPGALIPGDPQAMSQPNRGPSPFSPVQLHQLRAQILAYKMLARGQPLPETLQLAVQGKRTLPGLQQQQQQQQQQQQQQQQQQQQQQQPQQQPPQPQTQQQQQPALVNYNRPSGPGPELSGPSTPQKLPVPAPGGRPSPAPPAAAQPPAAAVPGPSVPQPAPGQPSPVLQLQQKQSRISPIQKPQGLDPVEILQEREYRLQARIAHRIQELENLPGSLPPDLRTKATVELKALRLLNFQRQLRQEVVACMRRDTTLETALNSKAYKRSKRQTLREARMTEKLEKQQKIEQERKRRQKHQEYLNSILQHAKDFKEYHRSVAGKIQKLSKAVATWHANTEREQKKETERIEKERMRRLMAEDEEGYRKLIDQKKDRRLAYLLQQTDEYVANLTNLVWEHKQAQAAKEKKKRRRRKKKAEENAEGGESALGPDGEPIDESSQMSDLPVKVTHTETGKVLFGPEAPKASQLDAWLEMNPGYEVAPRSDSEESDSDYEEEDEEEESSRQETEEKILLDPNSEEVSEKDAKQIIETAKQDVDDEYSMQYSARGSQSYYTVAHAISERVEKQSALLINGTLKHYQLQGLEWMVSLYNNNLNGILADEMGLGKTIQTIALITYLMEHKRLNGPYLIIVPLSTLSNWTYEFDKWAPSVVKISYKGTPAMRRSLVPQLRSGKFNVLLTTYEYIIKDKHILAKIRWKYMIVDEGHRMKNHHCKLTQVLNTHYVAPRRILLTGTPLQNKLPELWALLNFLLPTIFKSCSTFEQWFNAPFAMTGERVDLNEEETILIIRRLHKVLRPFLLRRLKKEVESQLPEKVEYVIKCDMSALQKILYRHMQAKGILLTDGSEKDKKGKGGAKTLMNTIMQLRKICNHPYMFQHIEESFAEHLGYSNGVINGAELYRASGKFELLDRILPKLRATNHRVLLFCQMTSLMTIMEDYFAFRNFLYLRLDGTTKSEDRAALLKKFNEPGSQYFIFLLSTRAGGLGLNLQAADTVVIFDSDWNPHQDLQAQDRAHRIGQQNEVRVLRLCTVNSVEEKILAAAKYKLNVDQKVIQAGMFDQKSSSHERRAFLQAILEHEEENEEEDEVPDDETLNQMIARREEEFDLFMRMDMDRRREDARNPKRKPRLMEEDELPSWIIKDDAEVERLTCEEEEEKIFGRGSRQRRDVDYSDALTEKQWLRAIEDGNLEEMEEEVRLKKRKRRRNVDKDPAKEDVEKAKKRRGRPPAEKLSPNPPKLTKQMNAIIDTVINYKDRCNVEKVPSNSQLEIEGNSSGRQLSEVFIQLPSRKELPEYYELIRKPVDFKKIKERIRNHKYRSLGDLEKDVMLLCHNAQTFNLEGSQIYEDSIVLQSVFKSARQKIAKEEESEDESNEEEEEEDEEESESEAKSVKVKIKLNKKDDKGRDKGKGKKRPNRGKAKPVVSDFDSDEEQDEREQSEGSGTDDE

Compound | cell cycle arrest [1] | Tumor size [2, 8] [mm^3] | TGI (tumor growth inhibition vs vehicle) [2, 8] | TGI (tumor growth inhibition vs vehicle) ([2]; Formula (I) 100 mg/kg s.c. Q3D, docetaxel 10/5 mg/kg i.v. QW, listed as docetaxel) [%] | TGI (tumor growth inhibition vs vehicle) [3, 9] [%] | Tumor size [3, 10] | TGI (tumor growth inhibition vs vehicle) [3, 11] | Tumor size [4] | TGI (tumor growth inhibition vs vehicle) [4] | tumor SMARCA2 protein levels (SMARCA2 protein) | tumor SMARCA2 protein levels relative to vehicle treated mice (SMARCA2 protein) | Gene Set Enrichment Analysis: E2F targets and G2/M pathways [5] | cell cycle arrest [6] | tolerability (morbidity, body weight) ([2]; Formula (I) 100 mg/kg s.c. Q3D, docetaxel 10/5 mg/kg i.v. QW, combination of both, one Formula (I) dosing holiday on day 12 in combination) | tolerability (morbidity, body weight) ([2]; single agents: Formula (I) 50 or 75 mg/kg i.v. QW, nab-paclitaxel 30 mg/kg i.v. Q3W) | tolerability (morbidity, body weight) ([3]; Formula (I) s.c. Q3D, docetaxel 5-20 mg/kg i.v. QW, combination) | tolerability (morbidity, body weight) ([4]; Formula (I) 100 mg/kg s.c. Q3D, docetaxel 5/10 mg/kg i.v. QW, combination) | growth of SMARCA4 WT Calu-6 lung tumor xenografts ([4]; Formula (I) at efficacious dosing regimens) | G1 cell cycle arrest [7]
CC(=O)O[C@@]12CO[C@@H]1C[C@H](O)[C@@]1(C)C(=O)[C@H](O)C3=C(C)[C@@H](OC(=O)[C@H](O)[C@@H](NC(=O)OC(C)(C)C)c4ccccc4)C[C@@](O)([C@@H](OC(=O)c4ccccc4)[C@H]21)C3(C)C [Docetaxel, reference compound] | dose dependent G2/M arrest signal | 971.86 ± 127.82 | 55.0% (day | 55 | 13 | 2,223 ± 300 mm^3 | 13.3% (day | 1,338 ± 132 mm^3 | 37.6% (day | no effect | no effect; also recorded: unaffected | positive enrichment of E2F targets and G2/M pathways | induced G2/M arrest | – | – | – | – | – | –
Cc1ncsc1-c1ccc([C@H](C)NC(=O)[C@@H]2C[C@@H](O)CN2C(=O)[C@@H](c2cc(O[C@@H](C)CN3CC[C@@H](N4CCN5c6cc(-c7ccccc7O)nnc6NC[C@H]5C4)C3)no2)C(C)C)cc1 [Formula (I)] | dose dependent G1 arrest signal | 590.46 ± 102.37 | – | – | 32 | 1,785 ± 221 mm^3 | 31.6% (day | 1,535 ± 174 mm^3 | 27.2% (day | complete reduction | significantly decreased; also recorded: abolished | downregulating E2F targets and G2/M pathways | induced G1 cell cycle arrest | well tolerated | well tolerated | well tolerated | well tolerated | did not inhibit the growth | not in SMARCA4 wild-type cell lines

Source: patent publication US20260115189A1, “Combination Treatment Regimens - SMARCA2 Degrader With Taxane Anticancer Agent” (PRELUDE THERAPEUTICS INCORPORATED, priority 2023, published 2026)
